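Growth conditions: 96-well plates. Treatment: test compound, 48 hours, 5 concentrations. Analysis: linear interpolation between bracketing concentrations; unreached endpoints set to highest concentration. The concentration for 50% growth inhibition is given as GI50. TGI marks complete inhibition of growth.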
Assays:
Assay in all cases: growth of human tumour cells (NCI), 48 h
OVCAR-4 ovarian = test system: OVCAR-4 ovarian
RXF 393 renal = test system: RXF 393 renal
MOLT-4 leukemia = test system: MOLT-4 leukemia
IGROV1 ovarian = test system: IGROV1 ovarian
UACC-62 melanoma = test system: UACC-62 melanoma
MCF7 breast = test system: MCF7 breast
ACHN renal = test system: ACHN renal
A549 NSCLC = test system: A549 NSCLC
OVCAR-5 ovarian = test system: OVCAR-5 ovarian
SF-268 CNS = test system: SF-268 CNS
SW-620 colon = test system: SW-620 colon
DU-145 prostate = test system: DU-145 prostate
HCT-116 colon = test system: HCT-116 colon
TK-10 renal = test system: TK-10 renal
OVCAR-8 ovarian = test system: OVCAR-8 ovarian
M14 melanoma = test system: M14 melanoma
KM12 colon = test system: KM12 colon
OVCAR-3 ovarian = test system: OVCAR-3 ovarian
UO-31 renal = test system: UO-31 renal
COLO 205 colon = test system: COLO 205 colon
NCI-H522 lung = test system: NCI-H522 lung
NCI-H226 lung = test system: NCI-H226 lung
CCRF-CEM leukemia = test system: CCRF-CEM leukemia
SR leukemia = test system: SR leukemia
NCI-H23 lung = test system: NCI-H23 lung
786-0 renal = test system: 786-0 renal
T-47D breast = test system: T-47D breast
A498 renal = test system: A498 renal
EKVX NSCLC = test system: EKVX NSCLC
U251 CNS = test system: U251 CNS
K-562 leukemia = test system: K-562 leukemia
HOP-92 NSCLC = test system: HOP-92 NSCLC
PC-3 prostate = test system: PC-3 prostate
NCI/ADR-RES ovarian = test system: NCI/ADR-RES ovarian
RPMI-8226 leukemia = test system: RPMI-8226 leukemia
SNB-19 CNS = test system: SNB-19 CNS
HT29 colon = test system: HT29 colon
UACC-257 melanoma = test system: UACC-257 melanoma
SNB-75 CNS = test system: SNB-75 CNS
MDA-MB-231 breast = test system: MDA-MB-231 breast
SK-MEL-28 melanoma = test system: SK-MEL-28 melanoma
HOP-62 NSCLC = test system: HOP-62 NSCLC
SF-539 CNS = test system: SF-539 CNS
SK-OV-3 ovarian = test system: SK-OV-3 ovarian
SF-295 CNS = test system: SF-295 CNS
SN12C renal = test system: SN12C renal
SK-MEL-5 melanoma = test system: SK-MEL-5 melanoma
MDA-MB-435 = test system: MDA-MB-435
CAKI-1 renal = test system: CAKI-1 renal
SK-MEL-2 melanoma = test system: SK-MEL-2 melanoma
NCI-H460 lung = test system: NCI-H460 lung
LOX IMVI melanoma = test system: LOX IMVI melanoma
HCT-15 colon = test system: HCT-15 colon
HCC-2998 colon = test system: HCC-2998 colon
HS 578T breast = test system: HS 578T breast
HL-60(TB) leukemia = test system: HL-60(TB) leukemia
MALME-3M melanoma = test system: MALME-3M melanoma

CC/C(Cc1ccccc1)=C(/c1ccc(O)cc1)c1ccc(OCCN2CCCC2)cc1
GI50 (OVCAR-4 ovarian): 2.08 µM
TGI (OVCAR-4 ovarian): 5.18 µM
GI50 (RXF 393 renal): 1.56 µM
TGI (RXF 393 renal): 3.13 µM
GI50 (MOLT-4 leukemia): 1.57 µM
TGI (MOLT-4 leukemia): 3.63 µM
GI50 (IGROV1 ovarian): 1.95 µM
TGI (IGROV1 ovarian): 4.5 µM
GI50 (UACC-62 melanoma): 2.03 µM
TGI (UACC-62 melanoma): 4.12 µM
GI50 (MCF7 breast): 0.0211 µM
TGI (MCF7 breast): 2.22 µM
GI50 (ACHN renal): 1.83 µM
TGI (ACHN renal): 3.39 µM
GI50 (A549 NSCLC): 2.05 µM
TGI (A549 NSCLC): 3.82 µM
GI50 (OVCAR-5 ovarian): 1.86 µM
TGI (OVCAR-5 ovarian): 3.93 µM
GI50 (SF-268 CNS): 1.61 µM
TGI (SF-268 CNS): 3.35 µM
GI50 (SW-620 colon): 1.84 µM
TGI (SW-620 colon): 3.63 µM
GI50 (DU-145 prostate): 1.94 µM
TGI (DU-145 prostate): 3.88 µM
GI50 (HCT-116 colon): 1.83 µM
TGI (HCT-116 colon): 3.3 µM
GI50 (TK-10 renal): 1.75 µM
TGI (TK-10 renal): 3.34 µM
GI50 (OVCAR-8 ovarian): 2.39 µM
TGI (OVCAR-8 ovarian): 5.39 µM
GI50 (M14 melanoma): 1.8 µM
TGI (M14 melanoma): 3.64 µM
GI50 (KM12 colon): 1.94 µM
TGI (KM12 colon): 3.74 µM
GI50 (OVCAR-3 ovarian): 1.82 µM
TGI (OVCAR-3 ovarian): 3.46 µM
GI50 (UO-31 renal): 1.43 µM
TGI (UO-31 renal): 2.95 µM
GI50 (COLO 205 colon): 1.76 µM
TGI (COLO 205 colon): 3.39 µM
GI50 (NCI-H522 lung): 1.89 µM
TGI (NCI-H522 lung): 3.67 µM
GI50 (NCI-H226 lung): 1.77 µM
TGI (NCI-H226 lung): 3.58 µM
GI50 (CCRF-CEM leukemia): 1.83 µM
TGI (CCRF-CEM leukemia): 4.16 µM
GI50 (SR leukemia): 1.35 µM
TGI (SR leukemia): 3.2 µM
GI50 (NCI-H23 lung): 1.72 µM
TGI (NCI-H23 lung): 3.53 µM
GI50 (786-0 renal): 1.72 µM
TGI (786-0 renal): 3.22 µM
GI50 (T-47D breast): 1.26 µM
TGI (T-47D breast): 3.32 µM
GI50 (A498 renal): 1.27 µM
TGI (A498 renal): 2.72 µM
GI50 (EKVX NSCLC): 1.44 µM
TGI (EKVX NSCLC): 2.89 µM
GI50 (U251 CNS): 1.69 µM
TGI (U251 CNS): 3.19 µM
GI50 (K-562 leukemia): 1.2 µM
TGI (K-562 leukemia): 3.41 µM
GI50 (HOP-92 NSCLC): 1.61 µM
TGI (HOP-92 NSCLC): 3.26 µM
GI50 (PC-3 prostate): 1.79 µM
TGI (PC-3 prostate): 3.25 µM
GI50 (NCI/ADR-RES ovarian): 2.1 µM
TGI (NCI/ADR-RES ovarian): 5.44 µM
GI50 (RPMI-8226 leukemia): 2.1 µM
TGI (RPMI-8226 leukemia): 4.67 µM
GI50 (SNB-19 CNS): 1.97 µM
TGI (SNB-19 CNS): 3.93 µM
GI50 (HT29 colon): 1.72 µM
TGI (HT29 colon): 3.78 µM
GI50 (UACC-257 melanoma): 2.14 µM
TGI (UACC-257 melanoma): 3.89 µM
GI50 (SNB-75 CNS): 1.31 µM
TGI (SNB-75 CNS): 2.98 µM
GI50 (MDA-MB-231 breast): 2.1 µM
TGI (MDA-MB-231 breast): 4.05 µM
GI50 (SK-MEL-28 melanoma): 1.72 µM
TGI (SK-MEL-28 melanoma): 3.42 µM
GI50 (HOP-62 NSCLC): 1.9 µM
TGI (HOP-62 NSCLC): 3.58 µM
GI50 (SF-539 CNS): 1.67 µM
TGI (SF-539 CNS): 3.21 µM
GI50 (SK-OV-3 ovarian): 1.74 µM
TGI (SK-OV-3 ovarian): 3.32 µM
GI50 (SF-295 CNS): 1.81 µM
TGI (SF-295 CNS): 3.46 µM
GI50 (SN12C renal): 1.88 µM
TGI (SN12C renal): 3.88 µM
GI50 (SK-MEL-5 melanoma): 1.7 µM
TGI (SK-MEL-5 melanoma): 3.08 µM
GI50 (MDA-MB-435): 1.67 µM
TGI (MDA-MB-435): 3.23 µM
GI50 (CAKI-1 renal): 1.65 µM
TGI (CAKI-1 renal): 3.52 µM
GI50 (SK-MEL-2 melanoma): 2.04 µM
TGI (SK-MEL-2 melanoma): 3.84 µM
GI50 (NCI-H460 lung): 1.72 µM
TGI (NCI-H460 lung): 3.48 µM
GI50 (LOX IMVI melanoma): 1.62 µM
TGI (LOX IMVI melanoma): 3.05 µM
GI50 (HCT-15 colon): 1.51 µM
TGI (HCT-15 colon): 3.08 µM
GI50 (HCC-2998 colon): 1.54 µM
TGI (HCC-2998 colon): 2.98 µM
GI50 (HS 578T breast): 1.86 µM
TGI (HS 578T breast): 5.83 µM
GI50 (HL-60(TB) leukemia): 1.9 µM
TGI (HL-60(TB) leukemia): 3.84 µM

COc1ccc(-c2nc(N)c(C#N)c3c2CCOc2c-3ccc3ccccc23)cc1
GI50 (OVCAR-4 ovarian): 1.43 µM
TGI (OVCAR-4 ovarian): 9.38 µM
GI50 (RXF 393 renal): 1.6 µM
TGI (RXF 393 renal): 31.1 µM
GI50 (MOLT-4 leukemia): > 100 µM
TGI (MOLT-4 leukemia): > 100 µM
GI50 (MCF7 breast): 20.2 µM
TGI (MCF7 breast): > 100 µM
GI50 (ACHN renal): 10.1 µM
TGI (ACHN renal): 22.6 µM
GI50 (A549 NSCLC): 28 µM
TGI (A549 NSCLC): 76.7 µM
GI50 (OVCAR-5 ovarian): 62.2 µM
TGI (OVCAR-5 ovarian): > 100 µM
GI50 (SF-268 CNS): 11.1 µM
TGI (SF-268 CNS): 39.8 µM
GI50 (HCT-116 colon): 54.3 µM
TGI (HCT-116 colon): > 100 µM
GI50 (TK-10 renal): 21.5 µM
TGI (TK-10 renal): 53.2 µM
GI50 (OVCAR-8 ovarian): 23.3 µM
TGI (OVCAR-8 ovarian): 58 µM
GI50 (M14 melanoma): 66.6 µM
TGI (M14 melanoma): > 100 µM
GI50 (KM12 colon): 42.7 µM
TGI (KM12 colon): > 100 µM
GI50 (UO-31 renal): 49.9 µM
TGI (UO-31 renal): > 100 µM
GI50 (COLO 205 colon): 7.61 µM
TGI (COLO 205 colon): > 100 µM
GI50 (NCI-H522 lung): 38.1 µM
TGI (NCI-H522 lung): > 100 µM
GI50 (NCI-H226 lung): 18 µM
TGI (NCI-H226 lung): 58.2 µM
GI50 (CCRF-CEM leukemia): > 100 µM
TGI (CCRF-CEM leukemia): > 100 µM
GI50 (NCI-H23 lung): 19.4 µM
TGI (NCI-H23 lung): 61.9 µM
GI50 (786-0 renal): 17.2 µM
TGI (786-0 renal): 48.3 µM
GI50 (T-47D breast): 22.8 µM
TGI (T-47D breast): > 100 µM
GI50 (U251 CNS): 14 µM
TGI (U251 CNS): 34.4 µM
GI50 (K-562 leukemia): > 100 µM
TGI (K-562 leukemia): > 100 µM
GI50 (HOP-92 NSCLC): 11.8 µM
TGI (HOP-92 NSCLC): 37.9 µM
GI50 (PC-3 prostate): 22 µM
TGI (PC-3 prostate): > 100 µM
GI50 (NCI/ADR-RES ovarian): 17.5 µM
TGI (NCI/ADR-RES ovarian): 57.8 µM
GI50 (SNB-19 CNS): 24.2 µM
TGI (SNB-19 CNS): 91 µM
GI50 (HT29 colon): 52.7 µM
TGI (HT29 colon): > 100 µM
GI50 (UACC-257 melanoma): 13.7 µM
TGI (UACC-257 melanoma): 37.8 µM
GI50 (SNB-75 CNS): > 100 µM
TGI (SNB-75 CNS): > 100 µM
GI50 (MDA-MB-231 breast): 10.6 µM
TGI (MDA-MB-231 breast): 33.8 µM
GI50 (SK-MEL-28 melanoma): 12.1 µM
TGI (SK-MEL-28 melanoma): 79.1 µM
GI50 (HOP-62 NSCLC): 20.8 µM
TGI (HOP-62 NSCLC): 49.7 µM
GI50 (SF-539 CNS): 21.2 µM
TGI (SF-539 CNS): 52.6 µM
GI50 (SK-OV-3 ovarian): 17.4 µM
TGI (SK-OV-3 ovarian): 55 µM
GI50 (SN12C renal): 21 µM
TGI (SN12C renal): 76.5 µM
GI50 (MDA-MB-435): 46.6 µM
TGI (MDA-MB-435): > 100 µM
GI50 (CAKI-1 renal): 3.32 µM
TGI (CAKI-1 renal): 19.6 µM
GI50 (SK-MEL-2 melanoma): 36.8 µM
TGI (SK-MEL-2 melanoma): > 100 µM
GI50 (NCI-H460 lung): 16.3 µM
TGI (NCI-H460 lung): > 100 µM
GI50 (MALME-3M melanoma): 15.2 µM
TGI (MALME-3M melanoma): 50.1 µM
GI50 (HCT-15 colon): 59.4 µM
TGI (HCT-15 colon): > 100 µM
GI50 (HCC-2998 colon): 56.1 µM
TGI (HCC-2998 colon): > 100 µM
GI50 (HS 578T breast): 31.8 µM
TGI (HS 578T breast): 76.6 µM
GI50 (HL-60(TB) leukemia): > 100 µM
TGI (HL-60(TB) leukemia): > 100 µM
